From PubChem BioAssay AID1996 come the findings set out here.

A word on the kinetic solubility: it is solubility judged after dilution from a stock solution rather than from solid.

≈ marks a conversion by molar mass, not a printed value.

For this series the following is noted: buffer; pH 7.4; 200.0 µM.
The molecule `NS(=O)(=O)c1ccc(CCNC(=O)COC(=O)/C=C/c2cc(Br)ccc2F)cc1` registered a kinetic solubility of 30.2 µg/mL (≈ 62.2 µM).

As for `NS(=O)(=O)c1ccc(CCNC(=O)C2CCN(C(=O)Nc3ccccc3)CC2)cc1`, the kinetic solubility stood at 63.9 µg/mL (≈ 148 µM). To `CCOC(=O)C1(CCc2ccccc2)CCN(CC(O)CO)CC1` (configuration not stated) belongs 39.8 µg/mL (≈ 119 µM); to `Cc1ccc2c(c1)CCCN2C(=O)CSc1ccccc1`, 19.5 µg/mL (≈ 65.6 µM); to `COc1ccc(S(=O)(=O)NCc2cccnc2)cc1Br`, 35.5 µg/mL (≈ 99.4 µM). To `Cc1ccccc1NC(=S)N1CCCCCC1` belongs > 37.3 µg/mL. To `Cc1ccc(S(=O)(=O)N2CC[C@@H]2C(=O)O)cc1` belongs > 38.3 µg/mL; to `Cc1ccc(N=C2NC(=O)CS2)cc1C`, 32.7 µg/mL (≈ 148 µM); to `CCCOC(=O)C1=C(C)NC(=O)NC1c1ccc(Br)s1` (configuration not stated), 3.1 µg/mL (≈ 8.63 µM). For the molecule `C=Cn1c(C(=O)O)ccc1-c1ccc(OC)cc1`, the solubility (kinetic) was > 36.5 µg/mL. The same measure for `COC(=O)c1c(C)oc(C)c1S(=O)(=O)N1CCCCC1`: 34.8 µg/mL (≈ 115 µM); for `COc1cc(C(=O)O)cc(NC(=O)c2ccco2)c1OC`: > 43.7 µg/mL.

Regarding `O=S(=O)(NC1CCCCCC1)c1cccc(Cl)c1`, the kinetic solubility came out at 40.6 µg/mL (≈ 141 µM). The same measure for `COc1ccc(NC(=S)/N=C(\N)Nc2nc(C)c3ccccc3n2)cc1`: 0.7 µg/mL (≈ 1.91 µM). As to `CC(=O)c1c(C)oc2ccc(NS(=O)(=O)c3ccc(F)cc3C)cc12`, the kinetic solubility was < 0.8 µg/mL. To `CCN1CCn2c3c(c4cccc(C)c42)CCCC31.Cl` (configuration not stated) belongs 33.6 µg/mL. With `CCc1ccc(NC(=O)c2ccccc2SC)cc1`, the solubility (kinetic) was 2.4 µg/mL (≈ 8.84 µM). With `COc1cccc(CNC(=O)COC(=O)c2nn(C)c(=O)c3ccccc23)c1`, the kinetic solubility was > 57.2 µg/mL. On to `Cc1ccc(N2CC(=O)N(c3ccc(C)cc3)CC2=O)cc1`, for which the solubility (kinetic) is 8.6 µg/mL (≈ 29.2 µM). To `CCOCCCn1c(=NC(C)=O)c(C#N)cc2c(=O)n3cccc(C)c3nc21` belongs 33 µg/mL (≈ 87 µM). To `O=[N+]([O-])c1ccc(O)c(C=Nc2ccc3c(c2)OCO3)c1` belongs 15.8 µg/mL (≈ 55.2 µM); to `O=C(CSC1=NCCN1)NC(c1ccccc1)c1ccccc1`, 44 µg/mL (≈ 135 µM); to `CS(=O)(=O)N1Cc2ccccc2CC1C(=O)OCC(=O)NCc1ccccc1` (configuration not stated), > 60.4 µg/mL. Regarding `CC1(C)CC2=C(CO1)C(=S)NC(c1ccccc1)N2CC1CCCO1` (configuration not stated), the kinetic solubility came to 45.3 µg/mL (≈ 126 µM). `Cc1ccc(-c2csc(NC3OC(=O)c4ccccc43)n2)cc1` (configuration not stated): the solubility (kinetic) turned out to be 0.4 µg/mL (≈ 1.24 µM). To `Cc1ccc(C(=O)NCC(=O)OC2CCCCC2=O)cc1C` (configuration not stated) belongs > 45.5 µg/mL; to `COc1cccc(C2Nc3ccccc3NC3=C2C(=O)CC(C)(C)C3)c1` (configuration not stated), 40.2 µg/mL (≈ 115 µM); to `CC1CC(CC(=O)NNc2nc(-c3ccccc3)cs2)C(=O)O1` (configuration not stated), > 49.7 µg/mL. The same measure for `Cc1cccc(OCc2ccc(C(=O)N3CCOCC3)o2)c1`: > 45.2 µg/mL; for `O=C(N/N=C/c1ccccn1)c1ccncc1`: > 33.9 µg/mL; for `CCOC(=O)/C(C#N)=C\C1=C(N2CCOCC2)CC(C)(C)OC1`: > 48.1 µg/mL. To `COC(=O)C[N+](C)(C)C/C=C\c1ccccc1.[Br-]` belongs > 47.1 µg/mL; to `O=C(NCC1CCCO1)c1ccc2[nH]c3c(c2c1)CCCC3` (configuration not stated), > 44.8 µg/mL; to `O=C(c1cccs1)c1c[nH]cc1-c1ccccc1`, 4.4 µg/mL (≈ 17.4 µM). Consider `Cc1ccccc1CC(=O)NCc1cccnc1`, for which the solubility (kinetic) was > 36 µg/mL. To `Nc1ccc2nc(SCc3ccccc3F)sc2c1` belongs 16 µg/mL (≈ 55.1 µM). The same measure for `Cc1onc(-c2ccccc2Cl)c1C(=O)NCc1ccc(F)cc1`: 45.3 µg/mL (≈ 131 µM). To `O=C(CCc1nc(-c2ccc(F)cc2)no1)NCc1ccccc1CN1CCOCC1` belongs > 63.7 µg/mL; to `CC(C)(C)c1ccc(-c2nc3n(c(=O)c2C#N)CCS3)cc1`, 3.5 µg/mL (≈ 11.2 µM); to `COc1ccc(S(=O)(=O)Nc2cccc(S(=O)(=O)N3CCCCC3)c2)cc1`, 44 µg/mL (≈ 107 µM). Regarding `CCOc1ccc(OCCC(=O)OCC(=O)NCc2ccccc2)cc1`, the kinetic solubility stood at 46.3 µg/mL (≈ 130 µM). The same measure for `COc1cccc(/C=C/C(=O)OCC(=O)NC2CCCCCCC2)c1`: 6.7 µg/mL (≈ 19.4 µM); for `CC(C)(C)N(Cc1ccccc1)C(=O)COC(=O)c1ccc(S(=O)(=O)N2CCOCC2)cc1`: 18.4 µg/mL (≈ 38.8 µM). The same measure for `CCOc1ccc(NC(=O)CNC(=O)c2ccco2)cc1`: > 43.2 µg/mL; for `O=C(OCC(=O)N1CCc2ccccc2C1)c1ccc(O)cc1`: 4.5 µg/mL (≈ 14.5 µM); for `CCN1CCN(c2ccc(NC(=O)c3ccco3)cc2)CC1`: 40.2 µg/mL (≈ 134 µM). Regarding `Cc1ccccc1NC(=O)C(C)N1C(=O)c2ccccc2C1=O` (configuration not stated), the kinetic solubility is > 46.3 µg/mL. To `COc1ccccc1Nc1nc(NCCO)nc(N)c1[N+](=O)[O-]` belongs 3.4 µg/mL (≈ 10.6 µM); to `COc1ccc(C2CC(C)=C(C#N)S(=O)(=O)C2C#N)cc1` (configuration not stated), > 45.4 µg/mL. The same measure for `N#Cc1ccccc1S(=O)(=O)Nc1ccc2c(c1)C(=O)OC2`: 43.4 µg/mL (≈ 138 µM); for `c1cnc2c(c1)ccc1cccnc12`: > 27 µg/mL.

`COc1ccc(/C=C/C(=O)OCC(=O)NC(C)CCc2ccccc2)cc1OC` (configuration not stated) displayed a solubility (kinetic) of 23.9 µg/mL (≈ 60.1 µM).

In the case of `Cc1ccc(NC(=S)N2CCCCC2)cc1C`, the kinetic solubility worked out at 30.5 µg/mL (≈ 123 µM). For the molecule `CCCCCCCCCCOC(=O)NC1CCS(=O)(=O)C1` (configuration not stated), the solubility (kinetic) was 1.1 µg/mL (≈ 3.44 µM).

On to `CCS(=O)(=O)c1ccc(O)c(NC(=O)c2ccc(S(=O)(=O)N3CCCCCC3)cc2)c1`, for which the solubility (kinetic) amounted to 11.6 µg/mL (≈ 24.9 µM). The same measure for `Cl.OC(CNC1CCCC1)COc1ccc(F)cc1` (configuration not stated): 36.6 µg/mL. To `COc1ccccc1NC(=O)NC1(C(=O)N2CCCCC2)CCCCC1` belongs 10 µg/mL (≈ 27.8 µM). To `COc1ccc(/C(N)=N/OC(=O)CC2CCCCC2)cc1` belongs 2.8 µg/mL (≈ 9.64 µM); to `Cc1c[nH]c(=O)c([N+](=O)[O-])c1`, > 23.1 µg/mL. Turning to `Cc1c(/C=N/O)c2ccccn2c1C=O`, the solubility (kinetic) is > 30.3 µg/mL.

Take `CNC(=O)CSc1nnc(-c2ccco2)n1-c1ccccc1`: the solubility (kinetic) is > 47.2 µg/mL. On to `COc1ccc(N2CCN(C(=O)c3cc(C)on3)CC2)cc1`, for which the solubility (kinetic) was > 45.2 µg/mL. To `CCOC(=O)Cn1nc(C)cc1NC(=O)c1ccncc1` belongs > 43.2 µg/mL; to `Cc1ccc(Nc2c([N+](=O)[O-])ccc3nonc23)cc1C`, 0.4 µg/mL (≈ 1.41 µM).

As for `O=C(NCc1cccnc1)c1ccccc1NS(=O)(=O)c1ccc(Br)cc1`, the solubility (kinetic) is > 66.9 µg/mL. Turning to `OC1(CC#CCN2CCCCC2)c2ccccc2-c2ccccc21`, the kinetic solubility was found to be 42.2 µg/mL (≈ 133 µM). In the case of `COc1ccc(CCNC(=O)COC(=O)C2CC2)cc1OC`, the solubility (kinetic) was > 46.1 µg/mL. The same measure for `O=C(NCCc1cccc(Cl)c1)c1ccc2c(c1)OCO2`: 5.8 µg/mL (≈ 19.1 µM). The same measure for `COc1ccc(Cl)cc1NC(=O)NCCN1CCCCC1`: > 46.8 µg/mL; for `COc1cccc2c3c(c(=O)[nH]c12)CC(C)(C)O3`: > 36.8 µg/mL; for `Nc1cc(=O)[nH]c(SCC(=O)Nc2cccc(S(=O)(=O)N3CCCCCC3)c2)n1`: 11.7 µg/mL (≈ 26.7 µM). The same measure for `O=S(=O)(c1ccc(-c2cc(C(F)(F)F)on2)s1)N1CCCC1`: 1 µg/mL (≈ 2.84 µM); for `Cc1cccc(C(=O)OCC(=O)N2CC(C)OC(C)C2)c1C` (configuration not stated): > 45.8 µg/mL; for `CCNC(=O)CC1SC(=Nc2ccc(C)c([N+](=O)[O-])c2)N(C)C1=O` (configuration not stated): > 52.6 µg/mL. In turn, `Cc1ccc(NC(=O)C(C)N2C(=O)c3ccccc3C2=O)c(C)c1` (configuration not stated) came in with a solubility (kinetic) of 29.7 µg/mL (≈ 92.1 µM). To `CNC(=O)COC(=O)CNC(=O)c1cc(Cl)cc([N+](=O)[O-])c1` belongs > 49.5 µg/mL; to `C=CCOc1ccccc1CNc1ccc2[nH]c(=O)[nH]c2c1`, > 44.3 µg/mL. To `CC(C)C[C@H](N)c1nnc(SCc2ccc(Cl)cc2)o1.Cl` belongs > 52.2 µg/mL; to `CCCc1cc(=O)[nH]c(SCC(=O)Nc2cc(S(=O)(=O)N3CCOCC3)ccc2N(CC)CC)n1`, > 78.6 µg/mL; to `CC(C)CC(=O)Nc1ccc(Cc2ccncc2)cc1`, > 40.3 µg/mL.

On to `CCC(=O)Nc1cccc(-c2cn3cccc(C)c3n2)c1`, for which the solubility (kinetic) is 39.8 µg/mL (≈ 142 µM). The same measure for `O=C(CN1CCOCC1)Nc1ccc(Br)cc1`: > 44.9 µg/mL; for `O=C(CCCN1C(=O)/C(=C\c2ccccc2)SC1=S)N1CCOCC1`: 9.8 µg/mL (≈ 26 µM). The same measure for `Cc1cc(C)c(NC(=O)Cn2c([N+](=O)[O-])cnc2C)c(C)c1`: 4.1 µg/mL (≈ 13.6 µM); for `O=C(Nc1ccncc1)c1ccc(Cl)cc1`: > 34.9 µg/mL; for `CCC(C)NC(=O)C(=O)NCC1CCCN1CC` (configuration not stated): 28.8 µg/mL (≈ 113 µM).

On to `S=C(NCc1ccco1)NCc1ccccc1Cl`, for which the solubility (kinetic) is > 42.1 µg/mL. `c1ccc(Nc2nc(NCCN3CCOCC3)nc(Nc3ccccc3)n2)cc1` had a solubility (kinetic) of 36 µg/mL (≈ 92 µM). Take `O=C(Nc1nc2ccccc2s1)c1ccccc1[N+](=O)[O-]`: the kinetic solubility was found to be 2.9 µg/mL (≈ 9.69 µM).

On to `CCOC(=O)C1=C(CC)Nc2ccccc2N/C1=N\S(=O)(=O)c1cccc(C(C)=O)c1`, for which the solubility (kinetic) was > 66.2 µg/mL. The same measure for `CCNC(=S)N(Cc1cc2c(C)ccc(C)c2[nH]c1=O)C1CCCC1`: < 0.3 µg/mL; for `COc1ccc(CCNC(=O)c2cc(Cl)nc3ccccc23)cc1`: 5.9 µg/mL (≈ 17.3 µM); for `CN1CCN(C(=S)NC(CC(=O)c2ccccc2)c2ccccc2)CC1` (configuration not stated): 43.2 µg/mL (≈ 118 µM). The same measure for `Cc1ccc(CNC(=S)N2CCOCC2)cc1`: > 37.6 µg/mL; for `Cc1cc(C(=O)NC2CCCCC2)c2cc(F)ccc2n1`: 19.6 µg/mL (≈ 68.4 µM); for `CC(Sc1ncnc2sc(-c3ccccc3)cc12)C(N)=O` (configuration not stated): 0.8 µg/mL (≈ 2.54 µM). To `CC1(C)C(c2ccccc2)=NC(c2ccc(Br)cc2)N1O` (configuration not stated) belongs 3.7 µg/mL (≈ 10.7 µM). Consider `CCc1cc2cc(C)ccc2nc1SCC(=O)NC1CCCC1`, for which the solubility (kinetic) is < 0.4 µg/mL. The same measure for `Cn1c2c(c(=O)n(C)c1=O)C(CC(=O)Nc1ccccc1F)C(=O)N2` (configuration not stated): > 51.9 µg/mL. The same measure for `Cl.O=C(OCC1CCNCC1)c1ccc2c(c1)OCO2`: > 45 µg/mL; for `Cc1ccc(C(=O)N2CCN(c3ncnc4c(C)csc34)CC2)cc1`: 4.3 µg/mL (≈ 12.2 µM). To `O=C(COC(=O)c1cc(=O)c2ccccc2o1)Nc1ccccc1F` belongs > 51.2 µg/mL.
